Assay results from patent publication US5827866A, “Peptidyl heterocycles useful in the treatment of thrombin related disorders” (Ortho Pharmaceutical Corporation, priority 1995, dated 1998).

Assay: not given
Details: rat, in vivo, iv

| SMILES | t1/2 |
| --- | --- |
| CNC(Cc1ccccc1)C(=O)N1CCCC1C(=O)NC(CCCNC(=N)N)C(=O)c1nccs1 (centres unmarked) [Compound 4] | 16 min |
| CN[C@H](Cc1ccccc1)C(=O)N1CCC[C@H]1C(=O)N[C@@H](CCCNC(=N)N)C(=O)c1nc2ccc(C(=O)OC)cc2s1 [Compound 12] | 43 min |
| CN[C@H](Cc1ccccc1)C(=O)N1CCC[C@H]1C(=O)N[C@@H](CCCNC(=N)N)C(=O)c1nc2ccc(C(=O)O)cc2s1 [Compound 13] | 25 min |
| CCOC(=O)c1csc(C(=O)[C@H](CCCNC(=N)N)NC(=O)[C@@H]2CCCN2C(=O)[C@@H](Cc2ccccc2)NC)n1 [Compound 19] | 14 min |
| CNC(Cc1ccccc1)C(=O)N1CCCC1C(=O)NC(CCCNC(=N)N)C(=O)c1nc2ccccc2[nH]1 (centres unmarked) [Compound 21] | 5 min |
| CC(=O)N[C@H](Cc1ccccc1)C(=O)N1CCC[C@H]1C(=O)N[C@@H](CCCNC(=N)N)C(=O)c1nc2ccccc2s1.O=C(O)C(F)(F)F [Compound 35] | 11 min |
| CN[C@@H](C(=O)N1CCC[C@H]1C(=O)N[C@@H](CCCNC(=N)N)C(=O)c1nc2ccccc2s1)C1CCCCC1 [Compound 37, N-METHYL-D-CYCLOHEXYLGLYCYL-N-[4-[(AMINOIMINOMETHYL)AMINO]-1S-[(BENXOTHIAZOL-2-YL)CARBONYL]BUTYL]-L-PROLINAMIDE] | 42 min |
| CN[C@H](Cc1ccccc1)C(=O)N1CCC[C@H]1C(=O)N[C@@H](CCCNC(=N)N)C(=O)c1nc2c(s1)CCCC2 [Compound 51] | 17 min |
| CN[C@H](Cc1ccccc1)C(=O)N1CCC[C@H]1C(=O)N[C@@H](CCCNC(=N)N)C(=O)c1nc2ccc3ccccc3c2s1 [Compound 52] | 8 min |
| CN[C@H](Cc1ccccc1)C(=O)N1CCC[C@H]1C(=O)N[C@@H](CCCNC(=N)N)C(=O)c1nc(C(=O)O)cs1 [Compound 54] | 15 min |

Now from value to compound:

| t1/2 | SMILES |
| --- | --- |
| 19 min | CN[C@H](Cc1ccccc1)C(=O)N1CCC[C@H]1C(=O)N[C@@H](CCCNC(=N)N)C(=O)c1nc2ccccc2s1 [Compound 1, N-METHYL-D-PHENYLALANYL-N-[4-[(AMINOIMINOMETHYL)AMINO]-1S-[(BENXOTHIAZOL-2- YL)CARBONYL]BUTYL]-L-PROLINAMIDE] |
| 16 min | CN[C@H](Cc1ccccc1)C(=O)N1CCC[C@H]1C(=O)N[C@@H](CCCNC(=N)N)C(=O)c1nc2ccc(CO)cc2s1 [Compound 15] |
| 8 min | CN[C@H](Cc1ccccc1)C(=O)N1CCC[C@H]1C(=O)N[C@@H](CCCNC(=N)N)C(=O)c1nc2ccc(F)cc2s1 [Compound 17] |
| 14 min | CN[C@H](CC1CCCCC1)C(=O)N1CCC[C@H]1C(=O)N[C@@H](CCCNC(=N)N)C(=O)c1nc2ccccc2s1 [Compound 29, N-METHYL-D-CYCLOHEXYLALANYL-N-[4-[(AMINOIMINOMETHYL)AMINO]-1S-[(BENXOTHIAZOL-2-YL)CARBONYL]BUTYL]-L-PROLINAMIDE] |
| 6 min | CN[C@H](Cc1c(F)c(F)c(F)c(F)c1F)C(=O)N1CCC[C@H]1C(=O)N[C@@H](CCCNC(=N)N)C(=O)c1nc2ccccc2s1 [Compound 30] |
| 19 min | CN[C@H](Cc1ccc(F)cc1)C(=O)N1CCC[C@H]1C(=O)N[C@@H](CCCNC(=N)N)C(=O)c1nc2ccccc2s1 [Compound 32, N-METHYL-D-(4-FLUOROPHENYL)ALANYL-N-[4-[(AMINOIMINOMETHYL)AMINO)-1S-[(BENXOTHIAZOL-2-YL)CARBONYL]BUTYL]-L-PROLINAMIDE] |
| 18 min | CNC(C(=O)N1CCCC1C(=O)NC(CCCNC(=N)N)C(=O)c1nc2ccccc2s1)c1ccccc1 [Compound 33, N-METHYL-D-PHENYLGLYCYL-N-[4-[(AMINOIMINOMETHYL)AMINO]-1S-[(BENXOTHIAZOL-2- YL)CARBONYL]BUTYL]-L-PROLINAMIDE] |

Assay: Ex vivo bioavailability assay (i.v. and p.o.)
Design: species or system male rats
Details: rat, p.o. vs i.v.; drug in plasma extrapolated from thrombin inhibition
Protocol: Bioavailability was determined by an ex vivo assay which incorporated hydrolysis rates from drug administered both i.v. and p.o. In this assay male rats were prepared as described above with a teflon tube implanted in their femoral artery.
A standard curve was generated by adding of drug or vehicle (100 μL) to whole blood (900 μL) followed by incubating (5 min) and centrifuging to obtain plasma. The percentage of thrombin inhibition was calculated by comparing the V0 of the vehicle to that of the drug treated samples. Datum from several runs were normalized with a statistical package (SAS) to generate a standard curve.
The percentage of thrombin inhibition in the treated animals was calculated by comparing the V0 prior to treatment with the V0 obtained from samples collected after treatment. The percent inhibition was applied to the standard curve (generated above) using the statistical package (SAS) and the quantity of drug in the sample was extrapolated.
Bioavailability (Bioavail.) was calculated from the plots of the extrapolated drug in sample vs. time for both i.v. and p.o. administration using the following equation:
%Bioavail. =([…])×(area
under p.o. curve/area under curve i.v.)

| Bloavail, | SMILES |
| --- | --- |
| 1.2% | CN[C@H](Cc1ccccc1)C(=O)N1CCC[C@H]1C(=O)N[C@@H](CCCNC(=N)N)C(=O)c1nc2ccccc2s1 [Compound 1, N-METHYL-D-PHENYLALANYL-N-[4-[(AMINOIMINOMETHYL)AMINO]-1S-[(BENXOTHIAZOL-2- YL)CARBONYL]BUTYL]-L-PROLINAMIDE] |

Assay: Ex vivo i.v. assay for duration of action (time to half plasma elimination)
Details: rat, from slope of Vo vs. time of plasma thrombin inhibition
Protocol: An ex vivo assay was conducted to determine the duration of action of the compounds of Formula I. For this i.v. assay male rats (Long Evans, 350-500 g) were implanted with a teflon cannulae via the femoral artery while under anesthesia (pentobarbital i.p., 35 mg/kg). […] The animals were allowed to recover for at least 24 h after the surgical procedure.
The test compound was dispersed in water and delivered to the animal (0.25 mL) via the femoral vein. […] A plasma sample was obtained by centrifuging the blood at 10,000 rpm for 5 min. This sample is analyzed for thrombin inhibition using the chromogenic assay, described below.
Datum was collected over a 30 min period and the initial rate of substrate hydrolysis (V0 (mOD/min)) was calculated with an analysis program (Softmax, Molecular Devices).
The time to half plasma elimination (t 1/2) was calculated from the slope of Vo vs. time, using the following equation:

| SMILES | t1/2 |
| --- | --- |
| CN[C@H](Cc1ccccc1)C(=O)N1CCC[C@H]1C(=O)N[C@@H](CCCNC(=N)N)C(=O)c1nc2ccc(O)cc2s1 [Compound 25] | 14 min |
| CNC(C(=O)N1CCC[C@H]1C(=O)N[C@@H](CCCNC(=N)N)C(=O)c1nc2ccccc2s1)c1ccccc1 (some centres unmarked) [Compound 34] | 26 min |
